PubChem BioAssay AID1918957 (Molecular Pharmacology Branch, DTP, NCI, 2023)

Test system: NCI-H1876 complex spheroid viability
Assay: Anticancer human tumor NCI-H1876 cell line growth inhibition [LSD1];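 further: spheroids exposed to compounds for one week before readout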;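 on viability, T/C: 100% = DMSO vehicle-treated spheroids so lower means fewer viable cells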
Conditions: for IC50: curve of first compound; for viability, T/C: stronger effect = lower value
Procedure, shortened: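 Multicellular complex spheroids of tumor cells with human endothelial cells (HUVEC) and mesenchymal stem cells; the LSD1 inhibitor iadademstat was combined with standard-of-care or investigational agents. Top concentration at or near clinical Cmax, half-log dilutions; final DMSO ≤0.25%.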

[1] = second compound 0.1 µM, first compound 0.0316 µM
[2] = second compound 0.1 µM, first compound 0.1 µM
[3] = second compound 0.1 µM, first compound 0.316 µM
[4] = second compound 0.1 µM, first compound 1 µM
[5] = second compound 0.316 µM, first compound 0.0316 µM
[6] = second compound 0.316 µM, first compound 0.1 µM
[7] = second compound 0.316 µM, first compound 0.316 µM
[8] = second compound 0.316 µM, first compound 1 µM
[9] = second compound 1 µM, first compound 0.0316 µM
[10] = second compound 1 µM, first compound 0.1 µM
[11] = second compound 1 µM, first compound 0.316 µM
[12] = second compound 1 µM, first compound 1 µM
[13] = second compound 3.16 µM, first compound 0.0316 µM
[14] = second compound 3.16 µM, first compound 0.1 µM
[15] = second compound 3.16 µM, first compound 0.316 µM
[16] = second compound 3.16 µM, first compound 1 µM
[17] = second compound 10 µM, first compound 0.0316 µM
[18] = second compound 10 µM, first compound 0.1 µM
[19] = second compound 10 µM, first compound 0.316 µM
[20] = second compound 10 µM, first compound 1 µM
[21] = second compound 0.1 µM, first compound 0.00949 µM
[22] = second compound 0.1 µM, first compound 0.03 µM
[23] = second compound 0.1 µM, first compound 0.0949 µM
[24] = second compound 0.1 µM, first compound 0.3 µM
[25] = second compound 0.316 µM, first compound 0.00949 µM
[26] = second compound 0.316 µM, first compound 0.03 µM
[27] = second compound 0.316 µM, first compound 0.0949 µM
[28] = second compound 0.316 µM, first compound 0.3 µM
[29] = second compound 1 µM, first compound 0.00949 µM
[30] = second compound 1 µM, first compound 0.03 µM
[31] = second compound 1 µM, first compound 0.0949 µM
[32] = second compound 1 µM, first compound 0.3 µM
[33] = second compound 3.16 µM, first compound 0.00949 µM
[34] = second compound 3.16 µM, first compound 0.03 µM
[35] = second compound 3.16 µM, first compound 0.0949 µM
[36] = second compound 3.16 µM, first compound 0.3 µM
[37] = second compound 10 µM, first compound 0.00949 µM
[38] = second compound 10 µM, first compound 0.03 µM
[39] = second compound 10 µM, first compound 0.0949 µM
[40] = second compound 10 µM, first compound 0.3 µM

Structure (SMILES): CC1COCCN1c1cc(C2(S(C)(=N)=O)CC2)nc(-c2ccnc3[nH]ccc23)n1 (stereo not given) + NC1CC1c1ccc(-c2cccc(O)c2)cc1
- IC50 (second compound 0.1 µM): 6.86 µM
- IC50 (second compound 0.316 µM): 6.54 µM
- IC50 (second compound 1 µM): 6.88 µM
- IC50 (second compound 3.16 µM): 6.24 µM
- IC50 (second compound 10 µM): 5.61 µM
- viability, T/C [1]: 110%
- viability, T/C [2]: 114%
- viability, T/C [3]: 112%
- viability, T/C [4]: 111%
- viability, T/C (second compound 0.1 µM, first compound 3.16 µM): 94.4%
- viability, T/C (second compound 0.1 µM, first compound 10 µM): 28.4%
- viability, T/C [5]: 119%
- viability, T/C [6]: 111%
- viability, T/C [7]: 113%
- viability, T/C [8]: 118%
- viability, T/C (second compound 0.316 µM, first compound 3.16 µM): 88.5%
- viability, T/C (second compound 0.316 µM, first compound 10 µM): 27.5%
- viability, T/C [9]: 124%
- viability, T/C [10]: 119%
- viability, T/C [11]: 118%
- viability, T/C [12]: 111%
- viability, T/C (second compound 1 µM, first compound 3.16 µM): 96.1%
- viability, T/C (second compound 1 µM, first compound 10 µM): 28%
- viability, T/C [13]: 114%
- viability, T/C [14]: 126%
- viability, T/C [15]: 120%
- viability, T/C [16]: 111%
- viability, T/C (second compound 3.16 µM, first compound 3.16 µM): 78.4%
- viability, T/C (second compound 3.16 µM, first compound 10 µM): 30.3%
- viability, T/C [17]: 112%
- viability, T/C [18]: 112%
- viability, T/C [19]: 114%
- viability, T/C [20]: 99.8%
- viability, T/C (second compound 10 µM, first compound 3.16 µM): 70.8%
- viability, T/C (second compound 10 µM, first compound 10 µM): 29.4%

Structure (SMILES): CCN(c1cc(-c2ccc(CN3CCOCC3)cc2)cc(C(=O)NCc2c(C)cc(C)[nH]c2=O)c1C)C1CCOCC1 + NC1CC1c1ccc(-c2cccc(O)c2)cc1
- IC50 (second compound 0.1 µM): > 3 µM
- IC50 (second compound 0.316 µM): > 3 µM
- IC50 (second compound 1 µM): > 3 µM
- IC50 (second compound 3.16 µM): > 3 µM
- IC50 (second compound 10 µM): > 3 µM
- viability, T/C [21]: 110%
- viability, T/C [22]: 109%
- viability, T/C [23]: 110%
- viability, T/C [24]: 99.6%
- viability, T/C (second compound 0.1 µM, first compound 0.949 µM): 86.6%
- viability, T/C (second compound 0.1 µM, first compound 3 µM): 54.8%
- viability, T/C [25]: 102%
- viability, T/C [26]: 106%
- viability, T/C [27]: 102%
- viability, T/C [28]: 94.1%
- viability, T/C (second compound 0.316 µM, first compound 0.949 µM): 77.3%
- viability, T/C (second compound 0.316 µM, first compound 3 µM): 54.1%
- viability, T/C [29]: 111%
- viability, T/C [30]: 112%
- viability, T/C [31]: 104%
- viability, T/C [32]: 102%
- viability, T/C (second compound 1 µM, first compound 0.949 µM): 88.2%
- viability, T/C (second compound 1 µM, first compound 3 µM): 60%
- viability, T/C [33]: 109%
- viability, T/C [34]: 108%
- viability, T/C [35]: 107%
- viability, T/C [36]: 97.5%
- viability, T/C (second compound 3.16 µM, first compound 0.949 µM): 83.8%
- viability, T/C (second compound 3.16 µM, first compound 3 µM): 57.8%
- viability, T/C [37]: 106%
- viability, T/C [38]: 99.9%
- viability, T/C [39]: 111%
- viability, T/C [40]: 100%
- viability, T/C (second compound 10 µM, first compound 0.949 µM): 79.9%
- viability, T/C (second compound 10 µM, first compound 3 µM): 55.3%

Structure (SMILES): Nc1ncn(C2CC(O)C(CO)S2)c(=O)n1 (stereo not given) + NC1CC1c1ccc(-c2cccc(O)c2)cc1
- IC50 (second compound 0.1 µM): > 0.3 µM
- IC50 (second compound 0.316 µM): > 0.3 µM
- IC50 (second compound 1 µM): > 0.3 µM
- IC50 (second compound 3.16 µM): 0.289 µM
- IC50 (second compound 10 µM): > 0.3 µM
- viability, T/C (second compound 0.1 µM, first compound 0.000949 µM): 115%
- viability, T/C (second compound 0.1 µM, first compound 0.003 µM): 111%
- viability, T/C [21]: 99.4%
- viability, T/C [22]: 91.2%
- viability, T/C [23]: 71%
- viability, T/C [24]: 51.3%
- viability, T/C (second compound 0.316 µM, first compound 0.000949 µM): 120%
- viability, T/C (second compound 0.316 µM, first compound 0.003 µM): 110%
- viability, T/C [25]: 99.7%
- viability, T/C [26]: 86.4%
- viability, T/C [27]: 73.1%
- viability, T/C [28]: 54.4%
- viability, T/C (second compound 1 µM, first compound 0.000949 µM): 110%
- viability, T/C (second compound 1 µM, first compound 0.003 µM): 106%
- viability, T/C [29]: 103%
- viability, T/C [30]: 90.1%
- viability, T/C [31]: 79.4%
- viability, T/C [32]: 54.8%
- viability, T/C (second compound 3.16 µM, first compound 0.000949 µM): 106%
- viability, T/C (second compound 3.16 µM, first compound 0.003 µM): 103%
- viability, T/C [33]: 104%
- viability, T/C [34]: 89%
- viability, T/C [35]: 72.1%
- viability, T/C [36]: 49.1%
- viability, T/C (second compound 10 µM, first compound 0.000949 µM): 107%
- viability, T/C (second compound 10 µM, first compound 0.003 µM): 100%
- viability, T/C [37]: 97.2%
- viability, T/C [38]: 96.3%
- viability, T/C [39]: 69.2%
- viability, T/C [40]: 50.4%

Structure (SMILES): O=C(C=Cn1cnc(-c2cc(C(F)(F)F)cc(C(F)(F)F)c2)n1)NNc1cnccn1 + NC1CC1c1ccc(-c2cccc(O)c2)cc1
- IC50 (second compound 0.1 µM): 0.078 µM
- IC50 (second compound 0.316 µM): 0.0786 µM
- IC50 (second compound 1 µM): 0.083 µM
- IC50 (second compound 3.16 µM): 0.086 µM
- IC50 (second compound 10 µM): 0.109 µM
- viability, T/C (second compound 0.1 µM, first compound 0.00316 µM): 96.7%
- viability, T/C (second compound 0.1 µM, first compound 0.01 µM): 97.2%
- viability, T/C [1]: 77.9%
- viability, T/C [2]: 42.8%
- viability, T/C [3]: 16.4%
- viability, T/C [4]: 11.7%
- viability, T/C (second compound 0.316 µM, first compound 0.00316 µM): 105%
- viability, T/C (second compound 0.316 µM, first compound 0.01 µM): 104%
- viability, T/C [5]: 81.8%
- viability, T/C [6]: 42%
- viability, T/C [7]: 16.4%
- viability, T/C [8]: 11.3%
- viability, T/C (second compound 1 µM, first compound 0.00316 µM): 97.5%
- viability, T/C (second compound 1 µM, first compound 0.01 µM): 103%
- viability, T/C [9]: 83.1%
- viability, T/C [10]: 44.1%
- viability, T/C [11]: 16.7%
- viability, T/C [12]: 12.9%
- viability, T/C (second compound 3.16 µM, first compound 0.00316 µM): 97.1%
- viability, T/C (second compound 3.16 µM, first compound 0.01 µM): 99.5%
- viability, T/C [13]: 78.7%
- viability, T/C [14]: 46.9%
- viability, T/C [15]: 18.2%
- viability, T/C [16]: 14.1%
- viability, T/C (second compound 10 µM, first compound 0.00316 µM): 96%
- viability, T/C (second compound 10 µM, first compound 0.01 µM): 92.4%
- viability, T/C [17]: 81.1%
- viability, T/C [18]: 53.5%
- viability, T/C [19]: 22.8%
- viability, T/C [20]: 18.4%
